Reference: patent publication US20240382519A1, “MONOVALENT COPPER/PORPHYRIDIUM SP. POLYSACCHARIDE COMPLEXES, RELATED PRODUCTS AND METHODS OF PREPARATION THEREOF” (B.G. NEGEV TECHNOLOGIES AND APPLICATIONS LTD., AT …, priority 2021, published 2024)

Legend:
Conditions in all cases: CFU after 24 h, 0.07% (w/v) polysaccharide, 30 ppm copper, Table 3(b)
A. baumannii = tested on: A. baumannii
C. albicans = tested on: C. albicans
P. aeruginosa = tested on: P. aeruginosa
E. coli = tested on: E. coli
B. subtilis = tested on: B. subtilis
S. aureus = tested on: S. aureus

| SMILES | Cell Viability [%] (A. baumannii) | Cell Viability [%] (C. albicans) | Cell Viability [%] (P. aeruginosa) | Cell Viability [%] (E. coli) | Cell Viability [%] (B. subtilis) | Cell Viability [%] (S. aureus) |
| --- | --- | --- | --- | --- | --- | --- |
| [Cl][Cu][Cl] [CuCl2] | 81.5 ± 7.4% | 71.0 ± 1.0% | 82.6 ± 6.8% | 81.3 ± 5.6% | 82.0 ± 1.0% | 81.6 ± 4.5% |
| [Cl][Cu] [CuCl, cuprous chloride] | 37.4 ± 3.5% | 90.3 ± 0.6% | 38.9 ± 4.5% |  | 52.6 ± 5.4% |  |
| [O]=[Cu] [CuO] | 87.1 ± 2.3% | 84.7 ± 4.0% | 79.4 ± 8.9% | 78.1 ± 6.5% | 72.7 ± 4.0% | 71.2 ± 8.9% |
